Values of other authors as cited in patent US20130309333A1, “METHOD AND COMPOSITION FOR TREATING FELINE SKIN DISORDERS” (priority 2011, published 2013).

Tested on: cats
Conditions: general knowledge

In the case of `Nc1cc(N2CCCCC2)nc(N)[n+]1[O-]` [minoxidil], the toxicity to cats is given as “highly toxic to cats”.
